Measurements reported in patent US11376203B2, “Hair treatment composition” (Conopco, Inc., priority 2017, dated 2022).

Experiments:
[1] = Hair switch volume reduction benefit after subsequent washing; details: switches from Example 1 subsequently washed, images captured; compared to control
Description: (§1) Dark brown European wavy hair switches of length 25 cm and weight 2 gms, were treated as follows:
(§2) At the end of the soaking period, the switches were left to dry at 20° C. and 50% RH. When dried, the switches were straightened with 5 passes of FHI irons (FHI Brands, 29003 Avenue Sherman Valencia, Calif. 91355 USA). The switches were then placed in a humidity chamber ˜30 C/80% RH for 1 hour and images were captured and analyzed.
The switches from the above example were subsequently washed and the images were captured. […] The corresponding benefits for glycine was only −10%.

[2] = Hair switch shape and frizz control (volume) after straightening and exposure to high humidity; details: After 1 hour at high humidity (30 C./80% RH); switches soaked 30 minutes in 1% aqueous solution, dried, straightened with 5 passes of irons; volume vs water control
Description: as §1
Control: After initial washing, soaked for 30 minutes in water
Comparative Example A: After initial washing, soaked for 30 minutes in aqueous solution of 1% glycine
Example 1: soaked for 30 minutes in aqueous solution of 1% N-formyl glycine
as §2

Row | SMILES | benefit over control (volume reduction) after washing [1] | % shape and frizz control benefit against control [2]
1 | NCC(=O)O [Comparative Example A, glycine] | −10% | −6%
2 | O=CNCC(=O)O [Example 1, N-formyl glycine] | 32% | 30%
